This assay deals with human GLP-1 receptor (Homo sapiens (Human), UniProt P43220). The conditions noted are these: read-out: Mean EC50; cAMP, HTRF detection, 30 min at 37° C., HEK-293 cells expressing cloned human GLP-1 receptor. In general terms: In TR-FRET formats the signal depends on donor and acceptor labels being close together.
human GLP-1 receptor, sequence (P43220 24-463): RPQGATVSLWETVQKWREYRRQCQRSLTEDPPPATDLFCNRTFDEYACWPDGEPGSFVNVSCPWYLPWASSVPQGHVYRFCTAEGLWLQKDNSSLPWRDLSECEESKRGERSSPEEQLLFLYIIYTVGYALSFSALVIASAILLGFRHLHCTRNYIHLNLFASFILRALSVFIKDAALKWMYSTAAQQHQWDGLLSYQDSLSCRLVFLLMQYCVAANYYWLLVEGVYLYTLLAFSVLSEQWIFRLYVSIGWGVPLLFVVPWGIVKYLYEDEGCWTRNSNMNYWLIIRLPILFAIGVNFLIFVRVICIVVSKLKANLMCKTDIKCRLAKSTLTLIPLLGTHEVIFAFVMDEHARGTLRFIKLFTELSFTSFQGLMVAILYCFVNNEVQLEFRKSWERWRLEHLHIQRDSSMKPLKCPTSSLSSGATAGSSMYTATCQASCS
As usually defined, the EC50 is the concentration giving half of the maximal effect. Regarding `Cc1nc(C)c(S(=O)(=O)N2Cc3cc4c(cc3C[C@H]2C(=O)N[C@@H](Cc2ccc(-c3ccc(C#N)cc3)cc2)C(=O)O)OCC(c2ccc(OCc3ccc(Cl)c(Cl)c3)cc2)O4)s1` (stereo in doubt) [Example 130, (S)-3-(4′-Cyano-biphenyl-4-yl)-2-{[(S)-3-[4-(3,4-dichloro-benzyloxy)-phenyl]-7-(2,4-dimethyl-thiazole-5-sulfonyl)-2,3,6,7,8,9-hexahydro-[1,4]dioxino[2,3-g]isoquinoline-8-carbonyl]-amino}-propionic acid], the EC50 came out at 0.111 µM.

For `Cc1nc(N2CCOCC2)ccc1S(=O)(=O)N1Cc2cc3c(cc2C[C@H]1C(=O)N[C@@H](Cc1ccc(-c2ccc(C#N)cc2)cc1)C(=O)O)OCC(c1ccc(OCc2ccc(Cl)c(Cl)c2)cc1)O3` (stereo in doubt) [Example 133, (S)-3-(4′-Cyano-biphenyl-4-yl)-2-{[(S)-3-[4-(3,4-dichloro-benzyloxy)-phenyl]-7-(2-methyl-6-morpholin-4-yl-pyridine-3-sulfonyl)-2,3,6,7,8,9-hexahydro-[1,4]dioxino[2,3-g]isoquinoline-8-carbonyl]-amino}-propionic acid], the EC50 amounted to 0.054 µM.

Consider `CCNc1ccc(S(=O)(=O)N2Cc3cc4c(cc3C[C@H]2C(=O)N[C@@H](Cc2ccc(-c3ccc(C#N)cc3)cc2)C(=O)O)OCC(c2ccc(OCc3ccc(Cl)c(Cl)c3)cc2)O4)c(C)n1` (stereo in doubt) [Example 135, (S)-3-(4′-Cyano-biphenyl-4-yl)-2-{[(S)-3-[4-(3,4-dichloro-benzyloxy)-phenyl]-7-(6-ethylamino-2-methyl-pyridine-3-sulfonyl)-2,3,6,7,8,9-hexahydro-[1,4]dioxino[2,3-g]isoquinoline-8-carbonyl]-amino}-propionic acid], for which the concentration for a half-maximal effect (EC50) was 0.284 µM.

Take `COCCNc1ccc(S(=O)(=O)N2Cc3cc4c(cc3C[C@H]2C(=O)N[C@@H](Cc2ccc(-c3ccc(C#N)cc3)cc2)C(=O)O)OCC(c2ccc(OCc3ccc(Cl)c(Cl)c3)cc2)O4)c(C)n1` (stereo in doubt) [Example 136, (S)-3-(4′-Cyano-biphenyl-4-yl)-2-({(S)-3-[4-(3,4-dichloro-benzyloxy)-phenyl]-7-[6-(2-methoxy-ethylamino)-2-methyl-pyridine-3-sulfonyl]-2,3,6,7,8,9-hexahydro-[1,4]dioxino[2,3-g]isoquinoline-8-carbonyl}-amino)-propionic acid]: the EC50 worked out at 0.05 µM.

Take `CC(=O)Nc1nc(-c2ccc(S(=O)(=O)N3Cc4cc5c(cc4C[C@H]3C(=O)N[C@@H](Cc3ccc(-c4ccc(C#N)cc4)cc3)C(=O)O)OCC(c3ccc(OCc4ccc(Cl)c(Cl)c4)cc3)O5)cc2)cs1` (stereo in doubt) [Example 138, (S)-2-({(S)-7-[4-(2-Acetylamino-thiazol-4-yl)-benzenesulfonyl]-3-[4-(3,4-dichloro-benzyloxy)-phenyl]-2,3,6,7,8,9-hexahydro-[1,4]dioxino[2,3-g]isoquinoline-8-carbonyl}-amino)-3-(4′-cyano-biphenyl-4-yl)-propionic acid]: the EC50 amounted to 0.241 µM.

On to `N#Cc1ccc(-c2ccc(C[C@H](NC(=O)[C@@H]3Cc4cc5c(cc4CN3S(=O)(=O)c3ccc(-c4csc(N)n4)cc3)OC(c3ccc(OCc4ccc(Cl)c(Cl)c4)cc3)CO5)C(=O)O)cc2)cc1` (stereo in doubt) [Example 139, (S)-2-({(S)-7-[4-(2-Amino-thiazol-4-yl)-benzenesulfonyl]-3-[4-(3,4-dichloro-benzyloxy)-phenyl]-2,3,6,7,8,9-hexahydro-[1,4]dioxino[2,3-g]isoquinoline-8-carbonyl}-amino)-3-(4′-cyano-biphenyl-4-yl)-propionic acid], for which the EC50 was 0.085 µM.

Values taken from patent US9175003B2, “Substituted azoanthracene derivatives and intermediates for preparation thereof” (TransTech Pharma, LLC, priority 2009, dated 2015).
